What all share (format): biochemical
The target of one assay is T1, human GST-CLK1 (Homo sapiens, UniProt P49759).
T1 construct: purified human GST-CLK1 (129-end, SignalChem) enzyme; purchased SignalChem
Put plainly: GST-CLK1 enzyme inhibition, ADP-Glo kinase assay. Particulars: ATP 10 μM, GST-CLK1 129-end. In outline: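 Human GST-CLK1 (129-end, 3 ng) reacted with substrate and 10 μM ATP for 1 h at 25° C in 40 mM Tris-HCl pH 7.4, 20 mM MgCl2, 0.5 mg/mL BSA, 50 μM DTT. ADP-Glo luminescence was normalised to solvent control; IC50 (nM) from 3 data sets.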
A general note: ADP-Glo turns the ADP formed in a reaction into a luminescent signal.

Another assay concerns the target LRRK2 (G2019S) (Homo sapiens, UniProt Q5S007, G2019S). The experiment in a line: LRRK2 G2019S enzyme inhibition, ADP-Glo kinase assay. Set-up: purchased SignalChem L10-12GG. As to conditions: ATP 25 μM. The method in brief:
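Purified human LRRK2 G2019S (16 ng) with 25 μM ATP and 0.2 μg substrate, 2 h at 25° C. in Tris-HCl pH 7.4, MgCl2, BSA, DTT buffer; compounds at 12 final concentrations, 50 μM down to 0.000001024 μM. ADP-Glo luminescence versus solvent control gave IC50.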

The next assay concerns the target T2, human GST-DYRK1A (Homo sapiens, UniProt Q13627).
T2 construct: purified human GST-DYRK1A (full length, Thermo Scientifics) enzyme; purchased Thermo Scientifics
Put plainly: GST-DYRK1A enzyme inhibition, ADP-Glo kinase assay. Particulars: ATP 10 μM, GST-DYRK1A full length, read-out: DYRK1 IC50. The method in brief:
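Full-length human GST-DYRK1A (10 ng) with 10 μM ATP and specific substrate in 40 mM Tris-HCl pH 7.4, 20 mM MgCl2, 0.5 mg/mL BSA, 50 μM DTT, 1 h at 25 °C. ADP formation read by ADP-Glo luminescence relative to solvent control; IC50 from three data sets.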

A value given as a limit tells only on which side of the number the result lay.

A word on the IC50: it is the concentration that inhibits the measured activity by half.

Sequence of LRRK2 (G2019S) (Q5S007 970-2527 G2019S limits assumed): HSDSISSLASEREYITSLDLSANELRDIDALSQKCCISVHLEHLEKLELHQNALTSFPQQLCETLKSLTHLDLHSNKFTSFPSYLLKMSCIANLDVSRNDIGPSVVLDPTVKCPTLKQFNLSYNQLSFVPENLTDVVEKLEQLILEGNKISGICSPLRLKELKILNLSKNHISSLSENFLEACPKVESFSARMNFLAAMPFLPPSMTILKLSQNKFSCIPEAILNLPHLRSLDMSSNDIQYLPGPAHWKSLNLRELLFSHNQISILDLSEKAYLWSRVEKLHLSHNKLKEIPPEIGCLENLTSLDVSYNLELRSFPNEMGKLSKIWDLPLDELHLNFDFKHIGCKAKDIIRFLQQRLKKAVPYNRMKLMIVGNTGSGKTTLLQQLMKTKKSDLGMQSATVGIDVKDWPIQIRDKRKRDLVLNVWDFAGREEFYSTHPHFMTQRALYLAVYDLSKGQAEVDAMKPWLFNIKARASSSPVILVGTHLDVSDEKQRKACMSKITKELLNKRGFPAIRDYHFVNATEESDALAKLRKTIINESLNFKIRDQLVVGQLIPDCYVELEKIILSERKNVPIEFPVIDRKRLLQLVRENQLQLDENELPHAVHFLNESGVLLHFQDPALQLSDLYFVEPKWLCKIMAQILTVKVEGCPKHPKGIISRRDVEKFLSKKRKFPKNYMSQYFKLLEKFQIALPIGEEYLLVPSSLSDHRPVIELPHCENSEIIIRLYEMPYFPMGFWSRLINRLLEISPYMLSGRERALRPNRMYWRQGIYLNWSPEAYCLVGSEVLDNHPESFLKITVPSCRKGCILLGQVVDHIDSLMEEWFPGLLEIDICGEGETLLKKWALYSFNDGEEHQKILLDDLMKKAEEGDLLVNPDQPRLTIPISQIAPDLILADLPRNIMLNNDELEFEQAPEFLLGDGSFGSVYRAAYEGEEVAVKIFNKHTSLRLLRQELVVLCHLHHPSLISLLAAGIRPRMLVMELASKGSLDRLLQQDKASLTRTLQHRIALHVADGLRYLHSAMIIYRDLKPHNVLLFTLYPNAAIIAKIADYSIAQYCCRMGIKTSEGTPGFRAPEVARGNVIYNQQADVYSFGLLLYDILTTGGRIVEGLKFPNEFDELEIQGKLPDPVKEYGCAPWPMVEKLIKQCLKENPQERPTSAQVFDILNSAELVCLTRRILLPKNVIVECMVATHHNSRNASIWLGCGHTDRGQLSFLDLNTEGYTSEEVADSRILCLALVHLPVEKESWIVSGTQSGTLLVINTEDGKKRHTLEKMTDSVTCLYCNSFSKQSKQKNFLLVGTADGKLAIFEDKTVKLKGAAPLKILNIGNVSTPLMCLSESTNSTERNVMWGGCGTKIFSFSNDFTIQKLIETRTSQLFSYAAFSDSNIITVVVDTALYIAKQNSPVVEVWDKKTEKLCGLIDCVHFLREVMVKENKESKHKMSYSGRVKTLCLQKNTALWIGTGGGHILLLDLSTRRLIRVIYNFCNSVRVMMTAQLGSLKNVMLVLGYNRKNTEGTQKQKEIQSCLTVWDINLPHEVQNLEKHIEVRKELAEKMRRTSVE
T1 sequence (P49759 129-484 limits assumed): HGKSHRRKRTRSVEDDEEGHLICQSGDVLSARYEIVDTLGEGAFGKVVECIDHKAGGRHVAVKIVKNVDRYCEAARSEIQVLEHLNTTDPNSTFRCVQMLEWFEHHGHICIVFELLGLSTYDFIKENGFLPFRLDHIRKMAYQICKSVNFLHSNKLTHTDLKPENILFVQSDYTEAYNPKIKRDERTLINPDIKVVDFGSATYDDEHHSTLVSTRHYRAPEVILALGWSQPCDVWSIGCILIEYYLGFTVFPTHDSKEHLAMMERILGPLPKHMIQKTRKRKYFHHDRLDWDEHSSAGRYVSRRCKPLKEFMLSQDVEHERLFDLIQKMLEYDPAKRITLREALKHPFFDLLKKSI

For `COc1cc(S(C)(=O)=O)ccc1Nc1nc(NCC2CCC2)c2cc[nH]c2n1` [Example 39, N^4-(cyclobutylmethyl)-N^2-(2-methoxy-4-(methylsulfonyl)phenyl)-7H-pyrrolo[2,3-d]pyrimidine-2,4-diamine 2,2,2-trifluoroacetate], the half-inhibitory concentration (IC50) against human GST-CLK1 is 0.301 to 1 µM; at LRRK2 (G2019S) it was under 0.1 µM; at human GST-DYRK1A, 0.301 to 1 µM.
`CS(=O)(=O)CCNc1nc(Nc2ccc(C(=O)N3CCC(N4CCOCC4)CC3)c3c2OCC3)nc2[nH]cc(C#N)c12` [Example 345, 4-((2-(methyl-sulfonyl)eth-yl)amino)-2-((4-(4-morpholino-piperidine-1-carbonyl)-2,3-dihydro-benzofuran-7-yl)amino)-7H-pyrrolo[2,3-d]pyrimidine-5-carbonitrile]: the 50% inhibitory concentration (IC50) was under 0.1 µM at human GST-CLK1, under 0.1 µM at LRRK2 (G2019S) and 0.301 to 1 µM on human GST-DYRK1A.
For `CC[C@H](C)Nc1nc(Nc2ccc(S(=O)(=O)N3CCOCC3)cc2OC)nc2[nH]ccc12` [Example 60, (S)-N^4-(sec-butyl)-N^2-(2-methoxy-4-(morpholinosulfonyl)phenyl)-7H-pyrrolo[2,3-d]pyrimidine-2,4-diamine], the values for the IC50 at human GST-CLK1, on LRRK2 (G2019S) and at human GST-DYRK1A were 0.301 to 1 µM, 0.101 to 0.3 µM and 0.301 to 1 µM, respectively.
Regarding `CCNc1nc(Nc2ccc(P3(=O)CCN(Cc4ccc(OC)cc4OC)CC3)cn2)nc2[nH]cc(C(F)(F)F)c12` [Example 153, 1-(2,4-dimethoxybenzyl)-4-(6-((4-(ethylamino)-5-(trifluoromethyl)-7H-pyrrolo[2,3-d]pyrimidin-2-yl)amino)pyridin-3-yl)-1,4-azaphosphinane 4-oxide], the IC50 against human GST-CLK1, on LRRK2 (G2019S) and on human GST-DYRK1A was under 0.1 µM each time.
Consider `O=C(c1ccc(Nc2nc(NC3CCCCC3)c3cc[nH]c3n2)c2c1OCCO2)N1CCOCC1` [Example 49, (8-((4-(cyclohexylamino)-7H-pyrrolo[2,3-d]pyrimidin-2-yl)amino)-2,3-dihydrobenzo[b][1,4]dioxin-5-yl)(morpholino)methanone 2,2,2-trifluoroacetate], for which the figures for the half-maximal inhibitory concentration (IC50) at human GST-CLK1, on LRRK2 (G2019S) and at human GST-DYRK1A were 0.301 to 1 µM, under 0.1 µM and 0.301 to 1 µM, respectively.
Consider `O=C(c1ccc(Nc2nc(NCC3CCC3)c3c(C(F)(F)F)c[nH]c3n2)c2c1CCO2)N1CCOCC1` [Example 458, (7-((4-((cyclo-butylmethyl)amino)-5-(trifluoromethyl)-7H-pyrrolo[2,3-d]pyrimidin-2-yl)amino)-2,3-dihydrobenzo-furan-4-yl) (morpholino) methanone], for which the values for the concentration for half-maximal inhibition (IC50) on human GST-CLK1, against LRRK2 (G2019S) and on human GST-DYRK1A were 0.301 to 1 µM, under 0.1 µM and 0.301 to 1 µM, respectively.
Consider `COc1cc(P2(=O)CCN(C3CC3)CC2)ccc1Nc1nc(NCC2CCC2)c2c(C(F)(F)F)c[nH]c2n1` [Example 423, 4-(4-((4-((cyclobutyl-methyl)amino)-5-(trifluoromethyl)-7H-pyrrolo[2,3-d]pyrimidin-2-yl)amino)-3-methoxyphenyl)-1-cyclopropyl-1,4-aza-phosphinane 4-oxide], for which the figures for the IC50 on human GST-CLK1, at LRRK2 (G2019S) and at human GST-DYRK1A were 0.301 to 1 µM, under 0.1 µM and 0.301 to 1 µM, respectively.
Regarding `CCCNc1nc(Nc2ccc(S(C)(=O)=O)cc2OC)nc2[nH]ccc12` [Example 9, N^2-(2-methoxy-4-(methylsulfonyl)phenyl)-N^4-propyl-7H-pyrrolo[2,3-d]pyrimidine-2,4-diamine 2,2,2-trifluoroacetate], the concentration for half-maximal inhibition (IC50) against human GST-CLK1 is 0.301 to 1 µM; against LRRK2 (G2019S) it was under 0.1 µM; at human GST-DYRK1A, 0.301 to 1 µM.
Turning to `CC(C)CNc1nc(Nc2ccc(C(=O)N3CCOCC3)c3c2OCCO3)nc2[nH]ccc12` [Example 44, (8-((4-(isobutylamino)-7H-pyrrolo[2,3-d]pyrimidin-2-yl)amino)-2,3-dihydrobenzo[b][1,4]dioxin-5-yl)(morpholino)methanone], the values for the half-maximal inhibitory concentration (IC50) on human GST-CLK1, against LRRK2 (G2019S) and on human GST-DYRK1A were 0.301 to 1 µM, under 0.1 µM and 0.301 to 1 µM, respectively.
With `CCCNc1nc(Nc2ccc(S(=O)(=O)N3CCOCC3)cc2OC)nc2[nH]ccc12` [Example 7, N^2-(2-methoxy-4-(morpholinosulfonyl)phenyl)-N^4-propyl-7H-pyrrolo[2,3-d]pyrimidine-2,4-diamine 2,2,2-trifluoroacetate], the IC50 at human GST-CLK1 is 0.301 to 1 µM; on LRRK2 (G2019S) it was under 0.1 µM; at human GST-DYRK1A, 0.301 to 1 µM.
As for `O=C(c1ccc(Nc2nc(N[C@H]3CCOC3)c3c(C(F)(F)F)c[nH]c3n2)c2c1OCCO2)N1CCOCC1` [Example 209, (S)-morpholino(8-((4-((tetrahydrofuran-3-yl)amino)-5-(trifluoromethyl)-7H-pyrrolo[2,3-d]pyrimidin-2-yl)amino)-2,3-dihydrobenzo[b][1,4]dioxin-5-yl)methanone], the IC50 against human GST-CLK1 is under 0.1 µM; against LRRK2 (G2019S), under 0.1 µM; on human GST-DYRK1A it was 0.301 to 1 µM.
For `COCC(C)(C)Nc1nc(Nc2ccc(S(C)(=O)=O)cc2OC)nc2[nH]ccc12` [Example 36, N^4-(1-methoxy-2-methylpropan-2-yl)-N^2-(2-methoxy-4-(methylsulfonyl)phenyl)-7H-pyrrolo[2,3-d]pyrimidine-2,4-diamine], the IC50 is 0.301 to 1 µM at human GST-CLK1, under 0.1 µM against LRRK2 (G2019S) and 0.301 to 1 µM on human GST-DYRK1A.
As for `COc1cc(S(C)(=O)=O)ccc1Nc1nc(N[C@H]2CCOC2)c2c(C(F)(F)F)c[nH]c2n1` [Example 384, (S)-N^2-(2-methoxy-4-(methylsulfonyl)phenyl)-N^4-(tetrahydrofuran-3-yl)-5-(trifluoromethyl)-7H-pyrrolo[2,3-d]pyrimidine-2,4-diamine], the results for the IC50 on human GST-CLK1, on LRRK2 (G2019S) and at human GST-DYRK1A were under 0.1 µM, under 0.1 µM and 0.301 to 1 µM, respectively.
Take `COc1cc(S(=O)(=O)N2CCOCC2)ccc1Nc1nc(NC2CC2)c2cc[nH]c2n1` [Example 57, N^4-cyclopropyl-N^2-(2-methoxy-4-(morpholinosulfonyl)phenyl)-7H-pyrrolo[2,3-d]pyrimidine-2,4-diamine]: the IC50 against human GST-CLK1 is 0.301 to 1 µM; on LRRK2 (G2019S), under 0.1 µM; on human GST-DYRK1A, 0.301 to 1 µM.
Turning to `CC[C@H](C)Nc1nc(Nc2ccc(C(=O)N3CCOCC3)c3c2OCC3)nc2[nH]cc(C#N)c12` [Example 356, (S)-4-(sec-butylamino)-2-((4-(morpholine-4-carbonyl)-2,3-dihydro-benzofuran-7-yl)amino)-7H-pyrrolo[2,3-d]pyrimidine-5-carbonitrile], the IC50 against human GST-CLK1 was 0.301 to 1 µM; against LRRK2 (G2019S), under 0.1 µM; on human GST-DYRK1A, 0.301 to 1 µM.
`COc1cc(P2(=O)CCN(C3CC3)CC2)ccc1Nc1nc(NCC2CC2)c2c(C(F)(F)F)c[nH]c2n1` [Example 421, 1-cyclopropyl-4-(4-((4-((cyclo-propylmeth-yl)amino)-5-(trifluoromethyl)-7H-pyrrolo[2,3-d]pyrimidin-2-yl)amino)-3-methoxyphenyl)-1,4-azaphosphinane 4-oxide]: the IC50 against human GST-CLK1 was 0.301 to 1 µM; at LRRK2 (G2019S), under 0.1 µM; at human GST-DYRK1A, 0.301 to 1 µM.
With `CCNc1nc(Nc2ccc(S(=O)(=O)N3CCOCC3)cc2OC)nc2[nH]ccc12` [Example 5, N^4-ethyl-N^2-(2-methoxy-4-(morpholinosulfonyl)phenyl)-7H-pyrrolo[2,3-d]pyrimidine-2,4-diamine 2,2,2-trifluoroacetate], the figures for the IC50 against human GST-CLK1, on LRRK2 (G2019S) and on human GST-DYRK1A were 0.301 to 1 µM, under 0.1 µM and 0.301 to 1 µM, respectively.
With `N#Cc1c[nH]c2nc(Nc3ccc(C(=O)N4CCN(C5COC5)CC4)c4c3OCCO4)nc(NC3CCC3)c12` [Example 289, 4-(cyclo-butylamino)-2-((8-(4-(oxetan-3-yl)piperazine-1-carbonyl)-2,3-dihydrobenzo[b] [1,4]dioxin-5-yl)amino)-7H-pyrrolo[2,3-d]pyrimidine-5-carbonitrile], the IC50 against human GST-CLK1 was under 0.1 µM; against LRRK2 (G2019S) it was under 0.1 µM; on human GST-DYRK1A, 0.301 to 1 µM.
Turning to `CC[C@@H](C)Nc1nc(Nc2ccc(S(=O)(=O)N3CCOCC3)cc2OC)nc2[nH]ccc12` [Example 59, (R)-N^4-(sec-butyl)-N^2-(2-methoxy-4-(morpholinosulfonyl)phenyl)-7H-pyrrolo[2,3-d]pyrimidine-2,4-diamine], the IC50 against human GST-CLK1 was 0.301 to 1 µM; against LRRK2 (G2019S), under 0.1 µM; on human GST-DYRK1A, 0.301 to 1 µM.
With `CC(C)Nc1nc(Nc2ccc(C(=O)N3CCOCC3)c3c2OCCO3)nc2[nH]ccc12` [Example 45, (8-((4-(isopropylamino)-7H-pyrrolo[2,3-d]pyrimidin-2-yl)amino)-2,3-dihydrobenzo[b][1,4]dioxin-5-yl)(morpholino)methanone 2,2,2-trifluoroacetate], the concentration for half-maximal inhibition (IC50) at human GST-CLK1 was 0.301 to 1 µM; at LRRK2 (G2019S) it was under 0.1 µM; on human GST-DYRK1A it was 0.301 to 1 µM.
With `COc1cc(S(C)(=O)=O)ccc1Nc1nc(NCC2CC2)c2cc[nH]c2n1` [Example 33, N^4-(cyclopropylmethyl)-N^2-(2-methoxy-4-(methylsulfonyl)phenyl)-7H-pyrrolo[2,3-d]pyrimidine-2,4-diamine], the IC50 against human GST-CLK1 is 0.301 to 1 µM; at LRRK2 (G2019S) it was under 0.1 µM; on human GST-DYRK1A, 0.301 to 1 µM.

Values taken from patent publication US20230066011A1, “PYRROLOPYRIMIDINE DERIVATIVE, AND PHARMACEUTICAL COMPOSITION FOR PREVENTING OR TREATING PROTEIN KINASE-RELATED DISEASE COMPRISING SAME AS ACTIVE INGREDIENT” (VORONOI CO., LTD., priority 2019, published 2023).
